One data set concerns HIV-1 YU2 virus. The conditions noted are these: cited from earlier work; for IC50: Cf2Th-CD4/CCR5 cells infected with HIV-1 YU2 virus.
In a further data set the test system is HIV-1YU2 virus. The conditions noted are these: cited from earlier work; for Activation of Viral Infectivity: relative, CD4 negative Cf2Th-CCR5 cells; for activation of viral infectivity in CD4-negative cells (in words): summary of Table S1.
Another data set concerns the target gp120. The following applies: cited from earlier work; for Kd: binding affinity for gp120.
The subject of data set [1] is amphotropic murine leukemia virus (A-MLV). The following applies: cells infected with A-MLV, cited from earlier work.
The next data set deals with gp120 coremin. Kind of data set: SPR enhancement of gp120 coremin binding to 17b antibody. The following applies: 100 nM gp120, 0–100 µM compound, 17b captured on CM5 chip. Also noted: species or system HIV-1. The source says: A major undesired trait of NBD analogues as HIV-1 entry inhibitors is their capacity to activate viral infectivity in CD4-negative cells. To understand the underlying mechanisms of activation of HIV-1 infectivity in CD4-negative cells in the presence of select NBD analogues, we asked if the capacity of the four analogues to induce gp120 conformational change to the CD4-bound state might account for observed differences in viral infectivity. To address this question, we employed surface-plasmon resonance (SPR) and measured the capacity of NBD-557, (±)-AS-II-37, (±)-AS-I-261, (±)-MAE-II-167, and (±)-MAE-II-188 to increase the binding affinity of either the minimal core (coremin) or full-length gp120 for the 17b antibody, which recognizes gp120 in the CD4-bound conformation. We chose gp120 coremin over coree for SPR measurement because the coree is already in the CD4 bound conformation, and the effect of these small molecules on 17b-gp120 interaction is undetectable.
Figure 7 NBD analogue binding to gp120 enhances 17b-gp120 interaction. (A–D) 100 nM of gp120 coremin or full-length gp120 in the presence of 0–100 µM of NBD analogues was passed over 17b antibody immobilized on a CM5 chip. The binding of gp120 to 17b increased, in a concentration dependent manner, in response to treatment with the NBD analogues.
SPR experiments were performed using Biacore T100 (GE Healthcare) at 25°C. […] HBS-EP buffer (GE Healthcare) was used for the running buffer. A capture method was used to monitor the enhancement of gp120 binding to 17b by NBD-analogues. […] The running buffer contained 20 mM HEPES, pH 7.4, 150 mM NaCl, 0.05% P-20, and 5% DMSO.

The next data set deals with Cf2Th-CD4-CCR5 cells. Further details: method as in PMID 22497421. The following applies: 100 µM; ref [24]; cited from earlier work.
The subject of data set [2] is full-length gp120 variants possessing the Ser 375 to Trp mutation (S375W). Further details: method as in PMID 19000821. The conditions noted are these: ref [21]; cited from earlier work.
In data set [3] the test system is Clade AKER2008 gp120 coree. Kind of data set: SPR binding of gp120 coree to immobilized NBD-556 and sCD4. The following applies: ligand on CM5 chip, Met 375. Also noted: species or system HIV-1. The source says:
(§1) Our structures reveal that Region I and II of the NBD congeners fit deeply within the Phe 43 cavity. As such, mutations that alter the shape of the cavity will also affect binding of the small molecules to gp120. One residue in close proximity to Region I and II of the NBD congeners is Ser 375 (vide supra). […] In several group O, N, or M HIV-1 viruses, Ser 375 of gp120 is replaced with either Met or His. […] However, the rate of Ser 375 to Trp mutation may be counterbalanced because the same mutation is also detrimental to the viruses by predisposing gp120 to adopt the CD4-bound conformation, a state prone to inactivation. Overall, the Phe 43 cavity remains an indispensable target for small molecule inhibitors.
(§2) Figure 8 NBD analogues are unable to bind Ser 375 variants of gp120s. […] Ser 375 was shown in the NBD-557 bound cavity. […] NBD-557 modeled into the Phe 43 cavity of clade A/E gp120 clashes with His 375. […] Met 375 modeled into NBD-557-bound YU2 gp120 clashes with NBD-557. […] NBD-557 clashes with Trp 375 in the Phe 43 cavity.
In general terms: In SPR one partner is held on a chip, and binding of the other changes the refractive index at the surface.

In data set [4] the test system is Clade CRF34_1OUR2478P gp120 coree. The data set is described as above. Further details: species or system HIV-1. The following applies: ligand on CM5 chip, Trp 375.
Source text: as §1, §2

Data set [5] relates to Clade A/E93TH057 gp120 coree. Described as above. The following applies: ligand on CM5 chip, His 375. Also noted: species or system HIV-1.
Source text: as §1, §2

Data set [6] concerns laboratory-adapted HIV-1IIIB strain. Further details: method as in Zhao et al. [18]. The following applies: printed in the HIV-1 YU2 column, but determined in laboratory-adapted HIV-1IIIB strain; ref Zhao et al. [18]; cited from earlier work.
Data set [7] deals with virus expressing the S375W Env gp120. Also noted: method as in PMID 19000821. The following applies: virus expressing S375W Env gp120 incubated with target cells; ref [21]; cited from earlier work.
[8] abbreviates: HIV-1YU2, normalized to 2 (NBD-557), ref [24,27].
[9] abbreviates: HIV-1YU2, normalized to N-(4-Chloro-3-Fluorophenyl)-N'-(1,2,2,6,6-Pentamethylpiperidin-4-yl)ethanediamide, ref [24,27].
Setting [10] is: HIV-1YU2, normalized to 1 (NBD-556), ref Madani et al. [21].

Structures are written as SMILES. Read-outs that look alike come from different tables or passages of the source.

As a reminder, the IC50 is the point on the concentration scale where inhibition reaches its midpoint. A word on the Kd: it is the equilibrium constant for the complex coming apart. For the molecule `CC1(C)O[C@@H](CN)[C@H](CNC(=O)C(=O)Nc2ccc(Cl)c(F)c2)O1` (relative stereo) [AS-I-261], the IC50 in the data set with HIV-1 YU2 virus (ref [24,27]) is 76.6 µM; in [1] (ref [24,27]) it was 94.4 µM. The “Activation of Viral Infectivity” value with HIV-1YU2 virus (setting [8]) is listed as 1.5. For the same molecule, the “activation of viral infectivity in CD4-negative cells (in words)” value with HIV-1YU2 virus (ref [24,27]) was “activated viral infectivity”. Also, at gp120 (ref [24,27]), the Kd was 2.6 µM. For the same molecule, the “enhancement of gp120 coremin binding to 17b” value (“enhancement … to 17b” for short) in the data set on gp120 coremin was “equally enhanced”.
Turning to `O=C(NC[C@@]12CCC[C@@H]1CNC2)C(=O)Nc1ccc(Cl)c(F)c1` (relative stereo) [MAE-II-167], the IC50 is 68.3 µM in the data set on HIV-1 YU2 virus (ref [24,27]) and 93.1 µM in [1] (ref [24,27]). Besides, in the data set with HIV-1YU2 virus (setting [8]), the “Activation of Viral Infectivity” value is 0.0. Further, at gp120 (ref [24,27]), the Kd was 3.1 µM. In the data set with gp120 coremin, the “enhancement … to 17b” value is “equally enhanced”.
`O=C(NCC1NCCc2ccccc21)C(=O)Nc1ccc(Cl)c(F)c1` (centres unmarked) [AS-II-37]: the IC50 was 50.4 µM in the data set with HIV-1 YU2 virus (ref [24,27]) and more than 100 µM in [1] (ref [24,27]). The “Activation of Viral Infectivity” value with HIV-1YU2 virus (setting [8]) was 0.6. The Kd on gp120 (ref [24,27]) is 1.2 µM. Moreover, the “enhancement … to 17b” value with gp120 coremin is “somewhat reduced enhancement”.
For the molecule `N=C(N)N[C@@H]1Cc2ccccc2[C@H]1NC(=O)C(=O)Nc1ccc(Cl)c(F)c1` [AWS-I-169], the figures for the IC50 (with HIV-1 YU2 virus (ref [24,27]); in data set [1] (ref [24,27])) were 21.3 µM and more than 100 µM, respectively. For the same molecule, the “Activation of Viral Infectivity” value in the data set with HIV-1YU2 virus (setting [9]) was 0.0. Besides, the dissociation constant Kd at gp120 (ref [24,27]) was 0.3 µM.
Consider `COc1ccnc2[nH]cc(C(=O)C(=O)N3CCN(C(=O)c4ccccc4)C[C@H]3C)c12` [BMS-806, reference compound], for which the “enhancement … to 17b” value in the data set with gp120 coremin is “did not enhance”.
For the molecule `N=C(N)N[C@H]1Cc2ccccc2[C@@H]1NC(=O)C(=O)Nc1ccc(Cl)c(F)c1` [DMJ-I-228], in the data set on Cf2Th-CD4-CCR5 cells, the “effect on cell growth dynamics (cytotoxicity)” value is “does not alter the cell growth dynamics”. Moreover, the IC50 in the data set with HIV-1 YU2 virus (ref [24,27]) is 22.9 µM; in data set [1] (ref [24,27]), more than 100 µM. Besides, the “Activation of Viral Infectivity” value in the data set on HIV-1YU2 virus (setting [9]) is reported as 0.0. For the same molecule, the “activation of viral infectivity in CD4-negative cells (in words)” value with HIV-1YU2 virus (ref [24,27]) is reported as “did not”. Also, on gp120 (ref [24,27]), the dissociation constant (Kd) was 0.25 µM.
Regarding `N=C(N)NC[C@H]1Cc2ccccc2[C@@H]1NC(=O)C(=O)Nc1ccc(Cl)c(F)c1` [DMJ-II-121], the IC50 in the data set with HIV-1 YU2 virus (ref [24,27]) is 2.3 µM; in data set [1] (ref [24,27]), more than 100 µM. Besides, the “Activation of Viral Infectivity” value in the data set with HIV-1YU2 virus (HIV-1YU2, normalized to 1 (NBD-556), ref [24,27]) is given as 0.0. Also, at gp120 (ref [24,27]), the Kd was 0.11 µM.
For the molecule `CC1(C)CC(NC(=O)C(=O)Nc2ccc(Cl)c(F)c2)CC(C)(C)N1` [JRC-II-191], the IC50 in the data set with HIV-1 YU2 virus (ref Madani et al. [21]) was 54.4 µM; in data set [1] (ref Madani et al. [21]) it was more than 100 µM. Further, in the data set with HIV-1 YU2 virus (compared with NBD-556, ref [21], [27]), the “inhibition of HIV-1YU2 infection of cells expressing CD4 and CCR5” value is “more potently than NBD-556”. The “Activation of Viral Infectivity” value in the data set with HIV-1YU2 virus (setting [10]) is 1.9 ± 0.2. For the same molecule, the “enhancement of binding affinity for YU2 gp120” value with gp120 (para-chloro, meta-fluoro aromatic ring, compared with NBD-556, ref [21], [27]) is 5 fold.
With `O=C(NCC1CCN(C2CC2)C1)C(=O)Nc1ccc(Cl)c(F)c1` (centres unmarked) [MAE-II-188], the “Activation of Viral Infectivity” value in the data set on HIV-1YU2 virus (setting [8]) is reported as 0.3. The half-maximal inhibitory concentration (IC50) in [1] (ref [24,27]) is more than 100 µM. In addition, in the data set on gp120 coremin, the “enhancement … to 17b” value was “equally enhanced”.
Regarding `CC1(C)CC(NC(=O)C(=O)Nc2ccc(Cl)cc2)CC(C)(C)N1` [NBD-556], in [2], the “binding to S375W full-length gp120” value is “inefficiently bind”. In addition, the IC50 (in the data set with HIV-1 YU2 virus (ref Madani et al. [21]); in data set [1] (ref Madani et al. [21])) was more than 100 µM each time. The “Activation of Viral Infectivity” value with HIV-1YU2 virus (setting [10]) is 1.0 ± 0.1. Further, the “binding of gp120 coree to immobilized ligand” value in [3] is reported as “does not bind”; in data set [4], “does not bind”; in data set [5], “does not show detectable binding”.
With `CC1(C)CC(NC(=O)C(=O)Nc2ccc(Br)cc2)CC(C)(C)N1` [NBD-557, reference compound], the IC50 in data set [6] is 3.08 µM. Further, the “Activation of Viral Infectivity” value in the data set on HIV-1YU2 virus (setting [10]) was 0.9 ± 0.4. The Kd at gp120 (ref Madani et al. [21]) is 2.2 µM. Further, in data set [7], the “enhancement of CD4-independent viral entry” value is “does not enhance”.

The values above are taken from article PMC3904841, “Crystal Structures of HIV-1 gp120 Envelope Glycoprotein in Complex with NBD Analogues That Target the CD4-Binding Site” (PLoS ONE, 2014).
